Legend:
[1] = Antiproliferative activity against human PNT1A cells assessed as inhibition of cell growth measured after 48 hrs by Alamar blue dye based assay; format: toxicity
[2] = system: MCF7; experiment: Antiproliferative activity against human MCF7 cells assessed as inhibition of cell growth measured after 48 hrs by Alamar blue dye based assay; format: functional; details: MCF7, 48 h
[3] = system: MDA-MB-231; experiment: Antiproliferative activity against human MDA-MB-231 cells assessed as inhibition of cell growth measured after 48 hrs by Alamar blue dye based assay; format: functional; details: MDA-MB-231, 48 h
[4] = system: PNT1A; experiment: Induction of apoptosis in human PNT1A cells assessed as live cells incubated for 48 hrs by annexin V and 7-AAD staining based flow cytometry analysis (reference value: 99.69%); format: functional
[5] = system: PNT1A; experiment: Induction of apoptosis in human PNT1A cells assessed as early apoptotic cells incubated for 48 hrs by annexin V and 7-AAD staining based flow cytometry analysis (reference value: 0.04%); format: functional
[6] = system: PNT1A; experiment: Induction of apoptosis in human PNT1A cells assessed as late apoptotic cells incubated for 48 hrs by annexin V and 7-AAD staining based flow cytometry analysis (reference value: 0.04%); format: functional
[7] = system: PNT1A; experiment: Induction of apoptosis in human PNT1A cells assessed as necrosis incubated for 48 hrs by annexin V and 7-AAD staining based flow cytometry analysis (reference value: 0.22%); format: functional
[8] = system: MDA-MB-231; experiment: Induction of apoptosis in human MDA-MB-231 cells assessed as live cells incubated for 48 hrs by annexin V and 7-AAD staining based flow cytometry analysis (reference value: 99.61%); format: functional
[9] = system: MDA-MB-231; experiment: Induction of apoptosis in human MDA-MB-231 cells assessed as early apoptotic cells incubated for 48 hrs by annexin V and 7-AAD staining based flow cytometry analysis (reference value: 0.18%); format: functional
[10] = system: MDA-MB-231; experiment: Induction of apoptosis in human MDA-MB-231 cells assessed as late apoptotic cells incubated for 48 hrs by annexin V and 7-AAD staining based flow cytometry analysis (reference value: 0.12%); format: functional
[11] = system: MDA-MB-231; experiment: Induction of apoptosis in human MDA-MB-231 cells assessed as necrosis incubated for 48 hrs by annexin V and 7-AAD staining based flow cytometry analysis (reference value: 0.09%); format: functional
[12] = system: MCF7; experiment: Induction of apoptosis in human MCF7 cells assessed as live cells incubated for 48 hrs by annexin V and 7-AAD staining based flow cytometry analysis (reference value: 99.14%); format: functional
[13] = system: MCF7; experiment: Induction of apoptosis in human MCF7 cells assessed as early apoptotic cells incubated for 48 hrs by annexin V and 7-AAD staining based flow cytometry analysis (reference value: 0.14%); format: functional
[14] = system: MCF7; experiment: Induction of apoptosis in human MCF7 cells assessed as late apoptotic cells incubated for 48 hrs by annexin V and 7-AAD staining based flow cytometry analysis (reference value: 0.68%); format: functional
[15] = system: MCF7; experiment: Induction of apoptosis in human MCF7 cells assessed as necrosis incubated for 48 hrs by annexin V and 7-AAD staining based flow cytometry analysis (reference value: 0.03%); format: functional
[16] = target: T1, Aromatase (Homo sapiens, UniProt P11511); experiment: Inhibition of human Aromatase by fluorimetric assay
T1 sequence (P11511 whole entry): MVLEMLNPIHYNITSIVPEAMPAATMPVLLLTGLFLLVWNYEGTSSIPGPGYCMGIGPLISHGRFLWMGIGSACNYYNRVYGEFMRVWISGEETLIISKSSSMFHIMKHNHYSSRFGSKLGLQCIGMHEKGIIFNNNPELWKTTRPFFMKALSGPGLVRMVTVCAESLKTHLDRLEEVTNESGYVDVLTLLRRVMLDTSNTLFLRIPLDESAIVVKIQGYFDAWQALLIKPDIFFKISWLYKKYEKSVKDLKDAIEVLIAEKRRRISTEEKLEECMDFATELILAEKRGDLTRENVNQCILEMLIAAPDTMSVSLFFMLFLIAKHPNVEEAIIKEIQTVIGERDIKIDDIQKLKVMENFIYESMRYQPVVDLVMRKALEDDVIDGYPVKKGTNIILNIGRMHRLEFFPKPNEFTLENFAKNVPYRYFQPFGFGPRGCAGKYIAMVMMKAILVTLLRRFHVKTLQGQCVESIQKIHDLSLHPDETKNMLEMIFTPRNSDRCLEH

[17] = Genotoxicity in human MCF7 cells assessed as abnormal tail nuclei measured after 48 hrs by ethidium bromide staining based fluorescent microscopic analysis; format: toxicity, cell-based; details: mcf7, 48 h
[18] = Genotoxicity in human MCF7 cells assessed as appearance of damaged DNA structures measured after 48 hrs by ethidium bromide staining based fluorescent microscopic analysis; format: toxicity, cell-based; details: mcf7, 48 h
[19] = Genotoxicity in human MDA-MB-231 cells assessed as appearance of damaged DNA structures measured after 48 hrs by ethidium bromide staining based fluorescent microscopic analysis; format: toxicity, cell-based; details: mda-mb-231, 48 h
[20] = Genotoxicity in human MDA-MB-231 cells assessed as abnormal tail nuclei measured after 48 hrs by ethidium bromide staining based fluorescent microscopic analysis; format: toxicity, cell-based; details: mda-mb-231, 48 h
[21] = Drug localization in mitochondria of human MDA-MB-231 cells at 2 uM incubated for 45 mins by MitoTracker dye based confocal laser scanning microscopic analysis; format: ADME; details: mda-mb-231, 0.75 h

Row | SMILES | IC50 at 48 h [1] | IC50 [2] | IC50 [3] | Live cells [4] | Activity [5] | Activity [6] | Activity [7] | Activity [8] | Activity [9] | Activity [10] | Activity [11] | Activity [12] | Activity [13] | Activity [14] | Activity [15] | IC50 [16] | Activity [17] | Activity [18] | Activity [19] | Activity [20] | other results
1 | C[n+]1ccc(/C=C/c2cc3c(O)c(c2)Cc2cc(C(C)(C)C)cc(c2OCCCn2cc(CBr)nn2)Cc2cc(/C=C/c4cc[n+](C)cc4)cc(c2O)Cc2cc(C(C)(C)C)cc(c2OCCCn2cc(CBr)nn2)C3)cc1 | 86.4 µM | 28.4 µM | 22.8 µM | – | – | – | – | – | – | – | – | – | – | – | – | – | – | – | – | – | –
2 | C[n+]1ccc(/C=C/c2cc3c(O)c(c2)Cc2cc(C(C)(C)C)cc(c2OCCCn2cc(CN4C(=O)C(=O)c5ccccc54)nn2)Cc2cc(/C=C/c4cc[n+](C)cc4)cc(c2O)Cc2cc(C(C)(C)C)cc(c2OCCCn2cc(CN4C(=O)C(=O)c5ccccc54)nn2)C3)cc1.[I-].[I-] | 77.6 µM | 19.2 µM | 9.24 µM | 99.14% | 0.16% | 0.08% | 0.63% | 91.42% | 0.26% | 1.66% | 6.66% | 50.95% | 8.09% | 37.69% | 3.27% | 0.518 µM | Toxic | Toxic | Toxic | Toxic | –
3 | C[n+]1ccc(/C=C/c2cc3c(O)c(c2)Cc2cc(C(C)(C)C)cc(c2OCCCn2cc(CN4C(=O)C(=O)c5cc(I)ccc54)nn2)Cc2cc(/C=C/c4cc[n+](C)cc4)cc(c2O)Cc2cc(C(C)(C)C)cc(c2OCCCn2cc(CN4C(=O)C(=O)c5cc(I)ccc54)nn2)C3)cc1.[I-].[I-] | 72.5 µM | 15.1 µM | 3.98 µM | 96.68% | 2.22% | 1.09% | 0.02% | 84.61% | 0.21% | 1.57% | 13.61% | 49.15% | 12.97% | 36.55% | 1.33% | 1.03 µM | Toxic | Toxic | Toxic | Toxic | –
4 | C[n+]1ccc(/C=C/c2cc3c(O)c(c2)Cc2cc(C(C)(C)C)cc(c2OCCCn2cc(CN4C(=O)C(=O)c5cc(F)ccc54)nn2)Cc2cc(/C=C/c4cc[n+](C)cc4)cc(c2O)Cc2cc(C(C)(C)C)cc(c2OCCCn2cc(CN4C(=O)C(=O)c5cc(F)ccc54)nn2)C3)cc1.[I-].[I-] | 62.9 µM | 11.6 µM | 5.59 µM | 93.92% | 5.69% | 0.28% | 0.1% | 64.85% | 0.11% | 2.03% | 33.01% | 41.92% | 2.18% | 45.79% | 10.11% | 0.711 µM | Toxic | Toxic | Toxic | Toxic | –
5 | Cc1ccc2c(c1)C(=O)C(=O)N2Cc1cn(CCCOc2c3cc(C(C)(C)C)cc2Cc2cc(/C=C/c4cc[n+](C)cc4)cc(c2O)Cc2cc(C(C)(C)C)cc(c2OCCCn2cc(CN4C(=O)C(=O)c5cc(C)ccc54)nn2)Cc2cc(/C=C/c4cc[n+](C)cc4)cc(c2O)C3)nn1.[I-].[I-] | 74.9 µM | 10.2 µM | 5.23 µM | 95.6% | 3.99% | 0.35% | 0.06% | 83.89% | 0.02% | 1.31% | 14.78% | 71.51% | 10.49% | 15.04% | 2.96% | 0.218 µM | Toxic | Toxic | Toxic | Toxic | –
6 | C[n+]1ccc(/C=C/c2cc3c(O)c(c2)Cc2cc(C(C)(C)C)cc(c2OCCCn2cc(CN4C(=O)C(=O)c5cc(Br)ccc54)nn2)Cc2cc(/C=C/c4cc[n+](C)cc4)cc(c2O)Cc2cc(C(C)(C)C)cc(c2OCCCn2cc(CN4C(=O)C(=O)c5cc(Br)ccc54)nn2)C3)cc1.[I-].[I-] | 57.2 µM | 10.1 µM | 3.78 µM | 96.14% | 2.6% | 1.13% | 0.14% | 87.12% | 0.4% | 1.6% | 10.87% | 40.42% | 34.66% | 24.62% | 0.3% | 0.315 µM | Toxic | Toxic | Toxic | Toxic | –
7 | C[n+]1ccc(/C=C/c2cc3c(O)c(c2)Cc2cc(C(C)(C)C)cc(c2OCCCn2cc(CN4C(=O)C(=O)c5cc(Cl)ccc54)nn2)Cc2cc(/C=C/c4cc[n+](C)cc4)cc(c2O)Cc2cc(C(C)(C)C)cc(c2OCCCn2cc(CN4C(=O)C(=O)c5cc(Cl)ccc54)nn2)C3)cc1.[I-].[I-] | 32.9 µM | 8.83 µM | 3.32 µM | 97.91% | 1.74% | 0.25% | 0.11% | 83.4% | 0.23% | 2.74% | 13.63% | 53.45% | 4.56% | 36.24% | 5.75% | 0.104 µM | Toxic | Toxic | Toxic | Toxic | Drug uptake [21]: Active
8 | O=c1[nH]cc(F)c(=O)[nH]1 [FLUOROURACIL] | 192 µM | 35.3 µM | 6.81 µM | – | – | – | – | – | – | – | – | – | – | – | – | – | – | – | – | – | –
